Assay results published in ChEMBL document CHEMBL4130353, “2-Substituted 3,7,8-trimethylnaphtho[1,2-b]furan-4,5-diones as specific L-shaped NQO1-mediated redox modulators for the treatment of non-small cell lung cancer” (Eur J Med Chem, 2017).
≈ marks a conversion by molar mass, not a printed value. Calls of active or inactive are those of the source. No cut-off for these calls is given here.

Key:
[1] = target: NAD(P)H dehydrogenase [quinone] 1 (Homo sapiens) (UniProt P15559); assay: Substrate activity at recombinant human NQO1 expressed in Escherichia coli assessed as reduction rate by measuring umol of NADPH utilized per umol of enzyme at 10 uM preincubated for 3 mins followed by NADPH addition measured at 2 secs interval for 5 mins by UV-Vis spectroscopy
Sequence of NAD(P)H dehydrogenase [quinone] 1 (Homo sapiens) (P15559 whole entry): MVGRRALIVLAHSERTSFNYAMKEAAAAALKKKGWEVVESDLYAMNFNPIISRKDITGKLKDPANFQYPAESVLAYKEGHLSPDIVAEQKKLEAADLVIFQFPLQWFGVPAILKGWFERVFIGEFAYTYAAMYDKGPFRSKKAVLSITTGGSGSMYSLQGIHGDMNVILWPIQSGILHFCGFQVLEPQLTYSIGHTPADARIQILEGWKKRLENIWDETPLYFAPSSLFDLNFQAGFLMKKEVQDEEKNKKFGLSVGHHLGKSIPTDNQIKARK

[2] = Solubility of the compound in diluted HCl buffer at pH 3; type: physicochemical
[3] = target: T1, NADPH--cytochrome P450 reductase (Homo sapiens, UniProt P16435); assay: Substrate activity at human CPR expressed in baculovirus expression system assessed as reduction rate by measuring umol of NADPH utilized per umol of enzyme at 10 uM preincubated for 3 mins followed by NADPH addition measured at 2 secs interval for 5 mins by UV-Vis spectroscopy; type: ADME
T1 sequence (P16435 whole entry): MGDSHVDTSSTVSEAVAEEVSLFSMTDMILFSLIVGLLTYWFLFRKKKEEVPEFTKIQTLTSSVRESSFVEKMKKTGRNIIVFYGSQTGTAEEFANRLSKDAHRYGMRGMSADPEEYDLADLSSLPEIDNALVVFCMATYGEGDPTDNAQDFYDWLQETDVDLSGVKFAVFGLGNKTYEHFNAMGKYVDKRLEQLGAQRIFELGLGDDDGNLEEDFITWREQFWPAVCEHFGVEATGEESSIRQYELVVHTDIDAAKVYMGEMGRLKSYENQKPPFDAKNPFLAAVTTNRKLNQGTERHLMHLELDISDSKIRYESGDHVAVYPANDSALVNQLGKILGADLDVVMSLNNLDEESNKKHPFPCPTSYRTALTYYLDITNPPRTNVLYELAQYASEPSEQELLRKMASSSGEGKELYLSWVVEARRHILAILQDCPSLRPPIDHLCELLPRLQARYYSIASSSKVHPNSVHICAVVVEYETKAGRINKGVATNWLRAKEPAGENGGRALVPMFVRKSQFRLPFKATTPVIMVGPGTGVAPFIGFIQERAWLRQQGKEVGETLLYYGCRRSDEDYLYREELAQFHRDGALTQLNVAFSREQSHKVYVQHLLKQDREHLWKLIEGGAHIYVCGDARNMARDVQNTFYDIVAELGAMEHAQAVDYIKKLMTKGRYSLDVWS

[4] = Effective permeability of the compound at pH 7.4 by PAMPA assay; type: ADME; conditions: read-out: Peff
[5] = species on record: Homo sapiens; assay: Selectivity ratio for substrate activity at recombinant human NQO1 to substrate activity at human CPR
[6] = Lipophilicity, log D of the compound at pH 7.4; type: physicochemical; conditions: buffer
[7] = Intrinsic solubility of the compound; type: physicochemical; conditions: read-out: Intrinsic_solubility
[8] = system: A549; assay: Antitumor activity against human A549 cells xenografted in athymic nude mouse assessed as tumor growth inhibition at 30 mg/kg, iv administered every other day for 3 weeks measured every day during compound dosing relative to control; type: functional; conditions: 504 h, read-out: TGI
[9] = system: L02; assay: Induction of intracellular ROS levels in human L02 cells at 10 uM after 1 to 3 hrs by DCFH-DA-based flow cytometry; type: cell-based; conditions: l02, 10 µM
[10] = system: A549; assay: Antitumor activity against human A549 cells xenografted in athymic nude mouse assessed as tumor growth inhibition at 50 mg/kg, iv administered every other day for 3 weeks measured every day during compound dosing relative to control; type: functional; conditions: 504 h, read-out: TGI
[11] = species on record: Danio rerio; assay: Hepatotoxicity in 48 hrs post fertilized transgenic liver zebrafish larvae model expressing LFABP:EGFP protein at 1 uM measured after 48 hrs post dose by fluorescence based assay; type: organism-based; conditions: in vivo
[12] = target: NAD(P)H dehydrogenase [quinone] 1 (Homo sapiens) (UniProt P15559); assay: Substrate activity at NQO1 in human A549 cells assessed as induction of enzyme-catalyzed lipid peroxidation by measuring MDA equivalents per protein at 10 uM after 24 hrs by TBARS assay; type: cell-based
[13] = target: NAD(P)H dehydrogenase [quinone] 1 (Homo sapiens) (UniProt P15559); assay: Substrate activity at NQO1 in human A549 cells assessed as induction of enzyme-catalyzed ROS production at 10 uM after 1 to 3 hrs by DCFH-DA-based flow cytometry; type: cell-based
[14] = system: A549/TR; assay: Cytotoxicity against human A549/TR cells assessed as cell growth inhibition preincubated for 24 hrs followed by compound washout measured after 72 hrs by MTT assay; type: functional, cell-based

SMILES | Activity [1] [µmol/min] | solubility [2] [µg/mL] | solubility [7] [µg/mL] | other results
COc1cccc(NCc2oc3c(c2C)C(=O)C(=O)c2cc(C)c(C)cc2-3)c1 | 955 |  |  | 
Cc1cc2c(cc1C)-c1oc(C(=O)N3CCN(Cc4ccccc4)CC3)c(C)c1C(=O)C2=O | 1360 | 100 to 500 (≈ 226 to 1130 µM) | 41.1 (≈ 92.9 µM) | Activity [3]: 90 µmol NADPH/min/µmol enzyme; Papp [4]: 11.9 ×10⁻⁶ cm/s; Selectivity ratio [5]: 15.1; logD [6]: 4.82
Cc1cc2c(cc1C)-c1oc(CN3CCN(Cc4ccccc4)CC3)c(C)c1C(=O)C2=O | 1190 |  |  | 
Cc1cc2c(cc1C)-c1oc(C(=O)Nc3ccc(F)cc3)c(C)c1C(=O)C2=O | 1260 |  |  | 
CC1(C)CCC2=C(O1)c1ccccc1C(=O)C2=O [LAPACHONE] |  | < 100 | 38 (≈ 157 µM) | inhibition in vivo at 30 mg/kg [8]: 78.5%; Activity [9]: Toxic; inhibition in vivo at 50 mg/kg [10]: 84.9%; Activity [11]: Toxic; Papp [4]: 46.4 ×10⁻⁶ cm/s; Activity [12]: 15.9 nmol/mg; Activity [13]: Active
Cc1cc2c(cc1C)-c1oc(CNc3ccc(F)cc3C)c(C)c1C(=O)C2=O | 1320 | < 100 | 33.1 (≈ 87.7 µM) | Activity [3]: 127 µmol NADPH/min/µmol enzyme; Selectivity ratio [5]: 10.3; logD [6]: 3.31
Cc1cc2c(cc1C)-c1oc(CNc3ccc(F)c(Cl)c3)c(C)c1C(=O)C2=O | 940 |  |  | 
Cc1cc2c(cc1C)-c1oc(CNc3ccc(F)cc3F)c(C)c1C(=O)C2=O | 1180 |  |  | 
Cc1cc2c(cc1C)-c1oc(CN3CCN(c4ccccc4)CC3)c(C)c1C(=O)C2=O | 1050 |  |  | 
CC(=O)O[C@H]1C(=O)[C@@]2(C)[C@H]([C@H](OC(=O)c3ccccc3)[C@]3(O)C[C@H](OC(=O)[C@H](O)[C@@H](NC(=O)c4ccccc4)c4ccccc4)C(C)=C1C3(C)C)[C@]1(OC(C)=O)CO[C@@H]1C[C@@H]2O [PACLITAXEL] |  |  |  | IC50 [14]: 28 µM
Cc1cc2c(cc1C)-c1oc(CNc3ccc(Cl)c(Cl)c3)c(C)c1C(=O)C2=O | 847 |  |  | 
COc1ccc(NCc2oc3c(c2C)C(=O)C(=O)c2cc(C)c(C)cc2-3)cc1 | 1120 |  |  | 
Cc1cc2c(cc1C)-c1occ(C)c1C(=O)C2=O |  | < 100 | 28.6 (≈ 119 µM) | Activity [3]: 142 µmol NADPH/min/µmol enzyme; Papp [4]: 43.1 ×10⁻⁶ cm/s; logD [6]: 3.65
COc1ccccc1NCc1oc2c(c1C)C(=O)C(=O)c1cc(C)c(C)cc1-2 | 1040 |  |  | 
Cc1cc2c(cc1C)-c1oc(CNc3ccc(F)cc3)c(C)c1C(=O)C2=O | 1330 | 100 to 500 (≈ 275 to 1380 µM) | 48.5 (≈ 133 µM) | Activity [3]: 105 µmol NADPH/min/µmol enzyme; Papp [4]: 42 ×10⁻⁶ cm/s; Selectivity ratio [5]: 12.7; logD [6]: 4.03
Cc1cc2c(cc1C)-c1oc(CN3CCN(c4ccc(F)cc4)CC3)c(C)c1C(=O)C2=O | 1460 | 500 to 1000 (≈ 1160 to 2310 µM) | 151 (≈ 349 µM) | Activity [3]: 159 µmol NADPH/min/µmol enzyme; Papp [4]: 28.3 ×10⁻⁶ cm/s; Selectivity ratio [5]: 9.19; logD [6]: 2.89
Cc1cc2c(cc1C)-c1oc(CNCc3ccc(F)cc3)c(C)c1C(=O)C2=O | 1200 |  |  | 
Cc1cc2c(cc1C)-c1oc(CNc3ccc(Br)cc3)c(C)c1C(=O)C2=O | 1150 |  |  | 
Cc1cc2c(cc1C)-c1oc(CNc3cccc(F)c3)c(C)c1C(=O)C2=O | 1340 | 100 to 500 (≈ 275 to 1380 µM) | 51.2 (≈ 141 µM) | Activity [3]: 112 µmol NADPH/min/µmol enzyme; Papp [4]: 66.2 ×10⁻⁶ cm/s; Selectivity ratio [5]: 12; logD [6]: 4.21
Cc1cc2c(cc1C)-c1oc(CNc3ccc(C#N)cc3)c(C)c1C(=O)C2=O | 898 |  |  | 
Cc1cc2c(cc1C)-c1oc(C(=O)NCc3ccc(F)cc3)c(C)c1C(=O)C2=O | 1290 |  |  | 
Cc1cc2c(cc1C)-c1oc(CNc3ccc(Cl)cc3Cl)c(C)c1C(=O)C2=O | 1060 |  |  | 
Cc1cc2c(cc1C)-c1oc(C(=O)N3CCN(c4ccc(F)cc4)CC3)c(C)c1C(=O)C2=O | 1190 |  |  | 
